Test results reported in US6924300B2, “Oxyiminoalkanoic acid derivatives” (Takeda Chemical Industries, Ltd., priority 1998, dated 2005).

melting point	SMILES
181 to 182 °C (dec.)	Cc1oc(-c2ccccc2)nc1COc1ccc(CO/N=C(\C(=O)O)c2cccc(Br)c2)cc1 [Example 43, Z-2-(3-bromophenyl)-2-[4-(5-methyl-2-phenyl-4-oxazolylmethoxy)benzyloxyimino]acetic acid]
105 to 106 °C	CCOC(=O)/C(=N/OCc1ccc(OCc2nc(-c3ccccc3)oc2C)cc1)c1ccc(Br)cc1 [Example 22, ethyl E-2-(4-bromophenyl)-2-[4-(5-methyl-2-phenyl-4-oxazolylmethoxy)benzyloxyimino]acetate]
130 to 131 °C (dec.)	Cc1oc(-c2ccccc2)nc1COc1ccc(CO/N=C(/C(=O)O)c2cccnc2)cc1 [Example 37, E-2-[4-(5-methyl-2-phenyl-4-oxazolylmethoxy)benzyloxyimino]-2-(3-pyridyl)acetic acid]
124 to 125 °C	Cc1oc(-c2ccccc2)nc1COc1ccc(CO/N=C(\CCC(=O)O)c2ccco2)cc1 [Example 72, E-4-(2-furyl)-4-[4-(5-methyl-2-phenyl-4-oxazolylmethoxy)benzyloxyimino]butyric acid]
143 to 144 °C (dec.)	Cc1oc(-c2ccccc2)nc1COc1ccc(CO/N=C(\Cc2ccccc2)C(=O)O)cc1 [Example 6, E-2-[4-(5-methyl-2-phenyl-4-oxazolylmethoxy)benzyloxyimino]-3-phenylpropionic acid]
110 to 112 °C	Cc1oc(-c2ccccc2)nc1COc1ccc(CO/N=C(/CCC(N)=O)c2ccccc2)cc1 [Example 139, Z-4-[4-(5-methyl-2-phenyl-4-oxazolylmethoxy)benzyloxyimino]-4-phenylbutanamide]
147 to 148 °C	C/C(=N\OCc1ccc(OCc2nc(-c3ccccc3)oc2C)cc1)C(=O)O [Example 9, E-2-[4-(5-methyl-2-phenyl-4-oxazolylmethoxy)benzyloxyimino]propionic acid]
131 to 133 °C	Cc1oc(-c2ccccc2)nc1COc1ccc(CO/N=C(/CCC(=O)O)c2ccco2)cc1 [Example 68, Z-4-(2-furyl)-4-[4-(5-methyl-2-phenyl-4-oxazolylmethoxy)benzyloxyimino]butyric acid]
142 to 143 °C (dec.)	Cc1oc(-c2ccccc2)nc1COc1ccc(CO/N=C(/c2ccccc2)C(C)(C)C(=O)O)cc1 [Example 110, Z-2,2-dimethyl-3-[4-(5-methyl-2-phenyl-4-oxazolylmethoxy)benzyloxyimino]-3-phenylpropionic acid]
112 to 114 °C	CCCC/C(=N\OCc1ccc(OCc2nc(-c3ccccc3)oc2C)cc1)C(=O)O [Example 8, E-2-[4-(5-methyl-2-phenyl-4-oxazolylmethoxy)benzyloxyimino]hexanoic acid]
165 to 166 °C (dec.)	Cc1oc(-c2ccccc2)nc1COc1ccc(CCCO/N=C(\C(=O)O)c2ccccc2)cc1 [Example 2, Z-2-[3-[4-(5-methyl-2-phenyl-4-oxazolylmethoxy)phenyl]propoxyimino]-2-phenylacetic acid]
111 to 112 °C	Cc1oc(-c2ccccc2)nc1COc1ccc(CO/N=C(\CCCC(C)(C)C(=O)O)c2ccccc2)cc1 [Example 141, E-2,2-dimethyl-6-[4-(5-methyl-2-phenyl-4-oxazolylmethoxy)benzyloxyimino]-6-phenylhexanoic acid]
182 to 183 °C (dec.)	Cc1oc(-c2ccccc2)nc1COc1ccc(CO/N=C(\C(=O)O)c2ccc(F)cc2)cc1 [Example 15, Z-2-(4-fluorophenyl)-2-[4-(5-methyl-2-phenyl-4-oxazolylmethoxy)benzyloxyimino]acetic acid]
164 to 165 °C	Cc1oc(-c2ccccc2)nc1COc1ccc(CO/N=C(\CC(N)=O)c2ccccc2)cc1 [Example 111, E-3-[4-(5-methyl-2-phenyl-4-oxazolylmethoxy)benzyloxyimino]-3-phenylpropanamide]

Second part, the molecule before the results:

SMILES	melting point
Cc1oc(-c2ccccc2)nc1COc1ccc(CO/N=C(\CCCCCCC(=O)O)c2ccc(Cl)cc2)cc1 [Example 123, E-8-(4-chlorophenyl)-8-[4-(5-methyl-2-phenyl-4-oxazolylmethoxy)benzyloxyimino]octanoic acid]	90 to 91 °C
Cc1oc(-c2ccccc2)nc1COc1ccc(CO/N=C(\CCCCCCC(=O)O)c2ccc(F)cc2)cc1 [Example 125, E-8-(4-fluorophenyl)-8-[4-(5-methyl-2-phenyl-4-oxazolylmethoxy)benzyloxyimino]octanoic acid]	79 to 80 °C
O=C(O)CC/C(=N\OCc1ccc(OCc2coc(-c3ccccc3)n2)cc1)c1ccccc1 [Example 102, E-4-phenyl-4-[4-(2-phenyl-4-oxazolylmethoxy)benzyloxyimino]butyric acid]	144 to 145 °C
CN(CCOc1ccc(CO/N=C(\CCC(=O)O)c2ccccc2)cc1)c1ncccn1 [Example 51, E-4-[4-[2-(methyl-2-pyrimidylamino)ethoxy]benzyloxyimino]-4-phenylbutyric acid]	72 to 73 °C
Cc1oc(-c2cccs2)nc1COc1ccc(CO/N=C(\CCCCC(=O)O)c2ccccc2)cc1 [Example 135, E-6-[4-[5-methyl-2-(2-thienyl)-4-oxazolylmethoxy]benzyloxyimino]-6-phenylhexanoic acid]	101 to 102 °C
COc1cc(CO/N=C(\CCC(=O)O)c2ccccc2)cc(OC)c1OCc1nc(-c2ccccc2)oc1C [Example 146, E-4-[3,5-dimethoxy-4-(5-methyl-2-phenyl-4-oxazolylmethoxy)benzyloxyimino]-4-phenylbutyric acid]	89 to 90 °C
COc1cc(CO/N=C(\CCC(=O)O)c2ccccc2)ccc1OCc1nc(-c2ccco2)oc1C [Example 148, E-4-[4-[2-(2-furyl)-5-methyl-4-oxazolylmethoxy]-3-methoxybenzyloxyimino]-4-phenylbutyric acid]	131 to 132 °C
COC(=O)CC/C(=N\OCc1ccc(OCc2nc(-c3ccco3)oc2C)c(OC)c1)c1ccccc1 [Example 147, methyl E-4-[4-[2-(2-furyl)-5-methyl-4-oxazolylmethoxy]-3-methoxybenzyloxyimino]-4-phenylbutyrate]	67 to 69 °C
O=C(O)CC/C(=N\OCc1ccc(OCc2cc(-c3ccccc3)on2)cc1)c1ccccc1 [Example 90, E-4-phenyl-4-[4-(5-phenyl-3-isoxazolylmethoxy)benzyloxyimino]butyric acid]	100 to 101 °C
O=C(O)CCCCCC/C(=N\OCc1ccc(OCc2noc(-c3ccccc3)n2)cc1)c1ccccc1 [Example 128, E-8-phenyl-8-[4-(5-phenyl-1,2,4-oxadiazol-3-ylmethoxy)benzyloxyimino]octanoic acid]	76 to 77 °C
O=C(O)CC/C(=N\OCc1ccc(OCc2ccc3ccccc3n2)cc1)c1ccccc1 [Example 104, E-4-phenyl-4-[4-(2-quinolinylmethoxy)benzyloxyimino]butyric acid]	133 to 134 °C
Cc1oc(-c2ccccc2)nc1COc1ccc(CO/N=C(\CCC(=O)O)c2ccc(Oc3ccccc3)cc2)cc1 [Example 47, E-4-[4-(5-methyl-2-phenyl-4-oxazolylmethoxy)benzyloxyimino]-4-(4-phenoxyphenyl)butyric acid]	131 to 132 °C
Cc1oc(-c2ccco2)nc1COc1ccc(CO/N=C(\CCC(=O)O)c2ccccc2)cc1 [Example 94, E-4-[4-[2-(2-furyl)-5-methyl-4-oxazolylmethoxy]benzyloxyimino]-4-phenylbutyric acid]	124 to 125 °C
O=C(O)CCCC/C(=N\OCc1ccc(OCc2nc(-c3ccccc3)no2)cc1)c1ccccc1 [Example 138, E-6-phenyl-6-[4-(3-phenyl-1,2,4-oxadiazol-5-ylmethoxy)benzyloxyimino]hexanoic acid]	91 to 92 °C
O=C(O)CC/C(=N\OCc1ccc(OCc2cn3ccccc3n2)cc1)c1ccccc1 [Example 101, E-4-[4-(imidazo[1,2-a]pyridin-2-ylmethoxy)benzyloxyimino]-4-phenylbutyric acid]	180 to 182 °C
Cc1oc(-c2cccs2)nc1COc1ccc(CO/N=C(\CCCCCCC(=O)O)c2ccccc2)cc1 [Example 130, E-8-[4-[5-methyl-2-(2-thienyl)-4-oxazolylmethoxy]benzyloxyimino]-8-phenyloctanoic acid]	106 to 108 °C
O=C(O)CC/C(=N\OCc1ccc(OCc2cn3c(-c4ccccc4)cccc3n2)cc1)c1ccccc1 [Example 57, E-4-[4-(5-phenylimidazo[1,2-a]pyridin-2-ylmethoxy)benzyloxyimino]-4-phenylbutyric acid]	160 to 161 °C
Cc1oc(-c2ccccc2)nc1COc1ccc(CO/N=C(/C(=O)O)c2cccc(Oc3ccccc3)c2)cc1 [Example 14, E-2-[4-(5-methyl-2-phenyl-4-oxazolylmethoxy)benzyloxyimino]-2-(3-phenoxyphenyl)acetic acid]	55 to 65 °C
O=C(O)CCCC/C(=N\OCc1ccc(OCc2noc(-c3ccccc3)n2)cc1)c1ccccc1 [Example 136, E-6-phenyl-6-[4-(5-phenyl-1,2,4-oxadiazol-3-ylmethoxy)benzyloxyimino]hexanoic acid]	88 to 89 °C
COc1ccc(/C(CCCCCCC(=O)O)=N/OCc2ccc(OCc3nc(-c4ccccc4)oc3C)cc2)cc1 [Example 118, E-8-(4-methoxyphenyl)-8-[4-(5-methyl-2-phenyl-4-oxazolylmethoxy)benzyloxyimino]octanoic acid]	69 to 70 °C
Cc1oc(-c2ccco2)nc1COc1ccc(CO/N=C(\CCCCCCC(=O)O)c2ccccc2)cc1 [Example 129, E-8-[4-[2-(2-furyl)-5-methyl-4-oxazolylmethoxy]benzyloxyimino]-8-phenyloctanoic acid]	75 to 77 °C
Cc1oc(-c2cccs2)nc1COc1ccc(CO/N=C(\CCC(=O)O)c2ccccc2)cc1 [Example 97, E-4-[4-[5-methyl-2-(2-thienyl)-4-oxazolylmethoxy]benzyloxyimino]-4-phenylbutyric acid]	142 to 143 °C
Cc1oc(-c2ccccc2)nc1COc1ccc(CO/N=C(/CCCCCCC(=O)O)c2ccc(F)cc2)cc1 [Example 126, Z-8-(4-fluorophenyl)-8-[4-(5-methyl-2-phenyl-4-oxazolylmethoxy)benzyloxyimino]octanoic acid]	56 to 57 °C
